In patent US20260131033A1, “RADIOLABELED FRUCTOSE DERIVATIVES FOR MEDICAL IMAGING” (Yellowbird Diagnostics Inc., priority 2023, published 2026):

Assays:
[1] = test system: HepG2 human hepatocarcinoma cells; experiment: Tracing of [U^13C]-fructose analog metabolism in vitro by LC-MS; type: cell-based; conditions: for metabolic fate / main ^13C-labelled cellular product / metabolism through the polyol pathway: 25 mM ^13C-labelled analog; for formation of glucose-6-phosphate: polyol pathway
Description: In order to characterize the structure-activity effect of fructose deoxyfluorination on metabolic flux, the metabolism of isotopically labelled [U^13C]-fructose, and [U^13C]-1-, [U^13C]-6-, and [U^13C]-4-FDF deoxyfluorinated fructose analogs was evaluated in vitro in HepG2 human hepatocarcinoma cells by mass spectrometry (FIGS. 3A-3G). HepG2 were chosen as a model cell line due to a recent report by Tee et al. outlining their propensity for fructolysis (Tee, S. S. et al., 2022). [U^13C]-1- and [U^13C]-6-FDF were synthesized according to previously published methods (Haradahira, T. et al., 1995; Wuest, M. et al., 2011), and [U^13C]-4-FDF was synthesized as described hereinabove (Scheme 3).
Tracing of [U^13C]-fructose metabolism in vitro. Human hepatocellular carcinoma cells (HepG2) were grown in Dulbecco's modified Eagle medium (DMEM) supplemented with 10% heat-inactivated fetal bovine serum (FBS) and 1% penicillin-streptomycin (P/S) until 80% confluent under cell culture conditions (37° C., 5% CO2, humidified), at which point they were passaged. Cells were passaged three times before being seeded in to a 6-well plate and grown until 80% confluent. Supplemented media was aspirated and replaced with lactated Ringer's buffer (LRB) alone or containing 25 mM [U^13C]-1-FDF, [U^13C]-4-FDF, or [U^13C]-6-FDF. Cells were incubated under cell culture conditions for 0, 15, 30, or 60 min. Following incubation, the plates were placed on ice and wells were aspirated. Wells were washed three times with ice-cold ammonium formate buffer (150 mM, pH 7.4) to remove unbound probe. A chilled (−20° C.) solution of 1:1 methanol:water was added to the wells and cells were scraped off of the wells into the solution. This solution was collected into bead-beater tubes containing 6 beads and stored at −80° C. until further analysis was performed.
Levels of fructose metabolites were assessed by liquid chromatography mass spectrometry (LC-MS). Sample temperature was maintained on ice or dry ice where possible, and all solvents were MS grade and pre-equilibrated to −20° C.
Metabolite extraction. Cell pellets were collected to a pre-chilled 2 mL tube containing 6 washed ceramic beads (1.4 mm). 380 μl of methanol:water (1:1) was added in the tube and kept in −80° C. until the day of metabolite extraction. On the day of extraction, samples were vortexed for 10 s and cell lysis was done by beating for 60 s at 2000 rpm (bead beating was done twice) after adding 220 μL of acetonitrile. Samples were then incubated with a 2:1 dichloromethane:water solution on ice for 10 minutes. The polar and non-polar phases were separated by centrifugation at 4000 g for 10 minutes at 1° C. The resulting upper phase, consisting of polar metabolites was dried with a refrigerated (−4° C.) centrivap concentrator (Labconco) and stored at −80° C. before LC-MS analyses.
LC-MS metabolite quantification. Samples to be injected in -ESI were re-suspended with 75% acetonitrile, cleared by centrifugation and run on an Agilent 6545B Q-TOF mass spectrometer equipped with a 1290 Infinity II ultra-high performance LC (Agilent Technologies). Continuous internal mass calibration was executed using signals from purine [12,000 full width at half maximum (FWHM) resolution] and hexakis (1H,1H,3H-tetrafluoropropoxy) phosphazine (24,000 FWHM resolution). All study samples were randomized before analysis and run using both high and low pH hydrophilic interaction chromatography (HILIC-Z) in negative ionization mode. HILIC separation was obtained using the Poroshell 120 HILIC-Z column (2.1 100 mm, […]; Agilent) and corresponding guard column. The chromatographic conditions and mass spectrometry acquisition parameters were as described elsewhere (Zhu, Z. et al., 2023). Metabolite identification was confirmed by exact mass, retention time and subsequent MS/MS fragmentation for where standards are available. For the fluoro-fructose labelled metabolites, exact mass and MS/MS was considered for metabolite confirmation. […]

[2] = Wuest, M. et al., 2018; cited from earlier work
[3] = Image-based dosimetry using OLINDA software; type: in vivo; conditions: all tissues, Balb/C mice, relative to [^18F]-2-fluoro-2-deoxyglucose
Description: Image-based dosimetry was evaluated in Balb/C mice (n=4) using OLINDA software. […] The bottom plot is a zoom of the y-axis from the top plot.

concussed mouse brain = experiment: PET/CT imaging of mice after closed-head concussive impact; type: in vivo, Balb/C mice
Description: Arrowhead indicates approximate location and direction of concussive blow. Mice were either left without head impact (Naïve), or received a single closed-head impact vertically at bregma 48 hrs prior to imaging. […] Average images from 20-40 min after the commencement of the scan are shown.

[4] = test system: heterotopic HepG2 xenograft mouse model; experiment: Comparative PET/CT biodistribution in heterotopic HepG2 xenograft mouse model; type: in vivo
Description: After the confirmation of cell uptake and intracellular trapping of [U^13C]4-FDF, and the successful production of the radiofluorinated analog, the biodistribution of [^18F]4-FDF was evaluated in a heterotopic HepG2 xenograft mouse model and compared to the biodistribution of [^18F]6-FDF and [^18F]FDG. PET/CT images shown are the summed images from 20-45 min after intravenous injection of (FIG. 4A) [^18F]4-FDF, (FIG. 4B) [^18F]6-FDF, or (FIG. 4C) [^18F]FDG. Sagittal, coronal, and maximum intensity projection (MIP) are shown, in addition to axial sections at the level of the brain, heart, liver/kidneys, and hips. […] Purple represents an increase in AUC and blue represents a decrease in AUC. The values are normalized fold-change in AUC.
Eight-week-old female nu/nu mice were inoculated with 10×10^6 HepG2 cells suspended in 50% Matrigel:DMEM subcutaneously under the left shoulder. Within 3-weeks of implantation, mice were imaged by PET/CT.
PET/CT Imaging. PET/CT imaging was carried out on a Bruker Si78PET/CT scanner with a 4-position hotel having adjustable isoflurane and respiratory monitoring for each position (Bruker USA). Tail veins were catheterized, and an anatomical CT was acquired over the whole of the mouse bodies using the “rat” settings. PET acquisition was started just prior to a bolus i.v. injection of approximately 200 μCi of radiotracer. Dynamic scans were acquired in list mode format over 45 min and sorted into 16×0.5-mm sinogram bins for image reconstruction (4×15 s, 4×60 s and 8×300 s). Iterative reconstruction was performed using 3D ordered-subsets expectation maximization (3D-OSEM) followed by fast maximum a posteriori (fastMAP) using Paravision 360 software v.3.4 (Bruker, USA). Four-mouse images were split into individual mice, and the bed was removed using PMOD v (Bruker, USA). VivoQuant v.2022 (InviCRO) was used for visualization of radioradiotracer uptake in tissues, to define the three-dimensional (3D) volumes of interest (VOI) and for 3D-visualisation to create volume rendering technique images. The count densities were averaged for all volumes of interest at each time point to obtain a time versus activity curve (TAC). Tumor and tissue TACs were normalized to injected dose, measured by a CRC-15 PET dose calibrator (Capintec, Inc., NJ, USA), and expressed as percentage injected dose per cubic centimeter of tissue (% ID/cc).

[5] = test system: mouse model of systemic inflammation (LPS); experiment: [^18F]4-FDF PET/CT in LPS mouse model of systemic inflammation; type: in vivo
Description: In order to further investigate whether a fructolytic switch occurs in inflammatory neural and cardiac tissues, a mouse model of systemic inflammation was examined. [^18F]4-FDF PET/CT was performed on mice receiving vehicle (FIG. 5A) or bacterial cell wall LPS (FIG. 5B) 24 hr after injection. Sagittal, coronal, MIP, and axial sections of the brain, heart and muscle are shown. Time-activity curves (TAC) for brain (FIG. 5C), heart (FIG. 5D), and muscle (FIG. 5E) are shown for mice receiving vehicle (−LPS) or LPS (+LPS). Solid lines are the means and dotted lines are standard deviation. […] The plots show individual data points (circles), mean (long line) and s.d. (vertical line). * p<0.05 by ANOVA followed by Tukey's test.
Mice receiving saline vehicle (FIG. 5A) or intraperitoneal bacterial cell wall lipopolysaccharide (LPS), as previously described (FIG. 5B; Shrum, B. et al., 2014), were imaged by [^18F]4-FDF PET/CT 24 hr after injection. […] The low uptake of [^18F]4-FDF in healthy brain and heart contributed to an increased signal-to-noise ratio for the mapping of cardio- and neuroinflammation in tissues that are otherwise highly glycolytic and have high [^18F]FDG uptake in the absence of disease (FIG. 4C).
Eight-week-old male Balb/C mice received 5 mg/kg LPS through intraperitoneal injection 24-hr prior to planned PET/CT imaging. Mice were supported by being warmed, and by being given fluids subcutaneously 12 hr after LPS injection. The mice were monitored and scored for severity of response to LPS as described previously (Shrum, B. et al., 2014).
PET/CT Imaging. PET/CT imaging was carried out on a Bruker Si78PET/CT scanner with a 4-position hotel having adjustable isoflurane and respiratory monitoring for each position (Bruker USA). Tail veins were catheterized, and an anatomical CT was acquired over the whole of the mouse bodies using the “rat” settings. […] Tumor and tissue TACs were normalized to injected dose, measured by a CRC-15 PET dose calibrator (Capintec, Inc., NJ, USA), and expressed as percentage injected dose per cubic centimeter of tissue (% ID/cc).

[6] = Time-course PET/CT biodistribution and TACs in fed or fasted mice; conditions: Balb/C mice freely fed or overnight fasted, ~7.4 MBq i.v., 60 min PET/CT
Description: Animals received ˜7.4 MBq i.v. immediately upon the initiation of image acquisition, which continued for 60 min. The dynamic scan was binned according to the times indicated.
Solid line=mean; Shaded region=standard deviation. Regions of interest were drawn over the tissues of interest, and the activity within that region of interest of known volume were plotted over the timecourse of the 60 min PET/CT acquisition.

[7] = HepG2 xenograft mice, intravenous injection, PET/CT
[8] = 5 mg/kg LPS i.p., imaged 24 hr after injection, vs vehicle
[9] = healthy brain and heart, PET/CT

Compound: O=C(CF)[C@@H](O)[C@H](O)[C@H](O)CO [[U^13C]-1-FDF, [U^13C]-1-fluoro-1-deoxyfructose]
- metabolic fate / main ^13C-labelled cellular product ([1]; mass spectrometry): majority of the ^13C-labelled cellular product being [U^13C]-deoxyfluorolactate
- metabolism through the polyol pathway ([1]; mass spectrometry): limited metabolism through the polyol pathway
- metabolic trapping in the cell ([1]; mass spectrometry): neither [U^13C]-1- (FIG. 3E) nor [U^13C]-6-FDF are metabolically trapped

Compound: O=C(CO)[C@@H](O)[C@H](F)[C@H](O)CO [[U^13C]-4-FDF, [U^13C]-4-fluoro-4-deoxyfructose]
- metabolic fate / main ^13C-labelled cellular product ([1]; mass spectrometry): metabolism halted at [U^13C]-4-fluorodeoxy-1-phosphate
- metabolism through the polyol pathway ([1]; mass spectrometry): capable of proceeding through the polyol pathway
- accumulation of fluorodeoxyfructose-1,6-bisphosphate ([1]; mass spectrometry): accumulation of [U^13C]-4-fluorodeoxyfructose-1,6-bisphophate
- metabolic trapping in the cell ([1]; mass spectrometry): unique ability to be trapped within cells
- time course of metabolite generation ([1]; over 60 min of incubation): steady-state accumulation of [U^13C]-4-fluorodeoxyfructose-1-phosphate and [U^13C]-4-fluorodeoxyfructose-1,6-bisphosphate, and increase in [U^13C]-4-fluorodeoxysorbitol
- formation of glucose-6-phosphate [1]: did not form detectable amounts of glucose-6-phosphate

Compound: O=C(CO)[C@@H](O)[C@H](O)[C@H](O)CF [[U^13C]-6-FDF, [U^13C]-6-fluoro-6-deoxyfructose]
- metabolic fate / main ^13C-labelled cellular product ([1]; mass spectrometry): substantial amount of [U^13C]-deoxyfluorolactate production
- metabolism through the polyol pathway ([1]; mass spectrometry): capable of proceeding through the polyol pathway
- metabolic trapping in the cell ([1]; mass spectrometry): neither [U^13C]-1- (FIG. 3E) nor [U^13C]-6-FDF are metabolically trapped
- formation of glucose-6-phosphate [1]: did not form detectable amounts of glucose-6-phosphate

Compound: O=[13C]([13CH2]O)[13C@@H](O)[13C@H](O)[13C@H](O)[13CH2]O [[U^13C]-fructose]
- metabolic fate / main ^13C-labelled cellular product ([1]; mass spectrometry): metabolized as expected through both fructolytic and polyol pathways

Compound: O=C(CF)[C@@H](O)[C@H](O)[C@H](O)CO [[^18F]1-FDF, 1-deoxy-1-fluoro-fructose]
- retention in cells in vitro and in vivo [2]: poorly retained in cells in vitro and in vivo

Compound: OC[C@H]1OC(O)(CO)[C@@H](O)[C@@H]1[18F] (stereo partly shown) [[^18F]4-FDF, [^18F]-4-fluoro-4-deoxyfructose]
- organ dose deposition [3]: less than or equal to the dose deposition for [^18F]-2-fluoro-2-deoxyglucose
- retention in naïve brain (concussed mouse brain; naïve Balb/C mice, average images 20-40 min): limited retention
- brain retention following concussion (concussed mouse brain; single closed-head impact at bregma 48 h prior to imaging, images 20-40 min): enhanced radiotracer retention
- bone uptake ([4]; HepG2 xenograft mice, PET/CT): < 2 % ID/g
- excretion route [4, 7]: renal exceeding hepatobiliary excretion
- tumor accumulation / pattern of radiotracer retention [4, 7]: accumulate in the tumor
- accumulation in normal mouse tissues ([4]; PET/CT, compared with [^18F]FDG): lower than that observed with [^18F]FDG
- brain uptake following LPS treatment [5, 8]: significant increase
- cardiac uptake following LPS treatment [5, 8]: significant increase
- uptake in healthy brain and heart [5, 9]: low uptake

Compound: O=C(CO)[C@@H](O)[C@H](O)[C@H](O)C[18F] [[^18F]6-FDF, [^18F]-6-fluoro-6-deoxyfructose]
- bone uptake ([4]; HepG2 xenograft mice, PET/CT): > 7 % ID/g
- bone uptake over time ([4]; HepG2 xenograft mice, TAC): continued to increase overtime
- tumor accumulation / pattern of radiotracer retention [4, 7]: similarly observed
- bone uptake, fold higher than [^18F]4-FDF ([4]; HepG2 xenograft mice, normalized to [^18F]4-FDF): 3.69 fold

Compound: O=C(CO)[C@@H](O)[C@@H]([18F])[C@H](O)CO [[^18F]-4-fluoro-4-deoxytagatose]
- bone uptake [6]: significant bone uptake that is retained overtime
- route of clearance [6]: main route of clearance is the kidney

Compound: [^18F]-2-fluoro-2-deoxy-D-glucose [[^18F]FDG]
- area under the time activity curve (AUC) in brain, fold greater than [^18F]4-FDF ([4]; brain, normalized to AUC of [^18F]4-FDF): 6.01 fold
- uptake in brain and heart in the absence of disease [4, 9]: high
- area under the time activity curve (AUC) in heart, fold greater than [^18F]4-FDF ([4]; heart, normalized to AUC of [^18F]4-FDF): 5.29 fold
